Our source for the Activity and IC50 values is ChEMBL document CHEMBL1152332, “Calothrixins, a new class of human DNA topoisomerase I poisons” (J Nat Prod, 2009).

By IC50 is commonly meant the concentration that inhibits the measured activity by half.

Calls of active or inactive are those of the source. The calls are words filed in the database; no cut-off is given here.

Test [1] deals with CCRF-CEM. The test can be described thus: Cell cycle arrest in human CCRF-CEM cells assessed as accumulation at S phase at 1 uM treated for 3 hrs measured for 15 hrs after nocodazole treatment by flow cytometry in presence of mitotic inhibitor nocodazole. It is filed as functional.
The test system of test [2] is CCRF-CEM. The test can be described thus: Cell cycle arrest in human CCRF-CEM cells assessed as accumulation at G2/M phase at 1 uM treated for 3 hrs measured for 15 hrs after nocodazole treatment by flow cytometry in presence of mitotic inhibitor nocodazole. It is filed as functional. On the technique in general: A flow cytometer gives signals particle by particle.

Test [3] deals with CCRF-CEM. In words: Cell cycle arrest in human CCRF-CEM cells assessed as accumulation at G0 phase at 10 uM treated for 3 hrs measured for 15 hrs after nocodazole treatment by flow cytometry in presence of mitotic inhibitor nocodazole. In kind it is functional.
The test system of test [4] is CCRF-CEM. In words: Cytotoxicity against p38-proficient human CCRF-CEM cells after 3 days by MTT assay. As to conditions: 72 h. In kind it is functional, cell-based.
The subject of test [5] is CCRF-CEM. In words: Cell cycle arrest in human CCRF-CEM cells assessed as accumulation at G0 phase at 1 uM treated for 3 hrs measured for 15 hrs after nocodazole treatment by flow cytometry in presence of mitotic inhibitor nocodazole. In kind it is functional.
Test [6] deals with T1, DNA topoisomerase 1 (Homo sapiens) (UniProt P11387).
T1 sequence (whole entry): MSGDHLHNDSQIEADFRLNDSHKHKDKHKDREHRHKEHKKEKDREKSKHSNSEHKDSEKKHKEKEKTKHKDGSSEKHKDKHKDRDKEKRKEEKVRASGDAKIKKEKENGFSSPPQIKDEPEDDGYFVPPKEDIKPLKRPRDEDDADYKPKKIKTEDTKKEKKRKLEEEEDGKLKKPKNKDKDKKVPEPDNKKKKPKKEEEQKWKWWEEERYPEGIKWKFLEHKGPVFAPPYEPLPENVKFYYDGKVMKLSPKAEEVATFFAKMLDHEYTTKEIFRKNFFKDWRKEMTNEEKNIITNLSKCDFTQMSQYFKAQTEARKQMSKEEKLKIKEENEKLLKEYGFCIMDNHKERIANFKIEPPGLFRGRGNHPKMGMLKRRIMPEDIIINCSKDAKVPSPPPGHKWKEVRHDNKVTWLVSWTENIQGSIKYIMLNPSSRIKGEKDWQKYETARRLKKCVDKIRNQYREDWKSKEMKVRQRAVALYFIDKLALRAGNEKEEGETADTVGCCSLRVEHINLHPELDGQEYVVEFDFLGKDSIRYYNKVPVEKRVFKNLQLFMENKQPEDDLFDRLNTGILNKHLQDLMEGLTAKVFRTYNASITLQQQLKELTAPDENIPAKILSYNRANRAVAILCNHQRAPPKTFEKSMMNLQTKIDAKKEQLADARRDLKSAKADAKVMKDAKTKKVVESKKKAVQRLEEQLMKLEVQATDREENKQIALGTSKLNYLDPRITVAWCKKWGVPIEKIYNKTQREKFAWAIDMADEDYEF
In words: Reversal of drug-stabilized human DNA topoisomerase 1-DNA binary complex at 5 uM within 5 mins by polyacrylamide gel electrophoresis in presence of 0.35 M NaCl.

Test [7] relates to CCRF-CEM. The test can be described thus: Cell cycle arrest in human CCRF-CEM cells assessed as accumulation at S phase at 1 uM treated for 3 hrs followed by drug washout and 15 hrs incubation in drug free medium by flow cytometry. It is filed as functional.
Test [8] relates to CCRF-CEM. The test can be described thus: Cell cycle arrest in human CCRF-CEM cells assessed as accumulation at G0 phase at 0.1 uM treated for 3 hrs measured for 15 hrs after nocodazole treatment by flow cytometry in presence of mitotic inhibitor nocodazole. In kind it is functional.
The subject of test [9] is CCRF-CEM. In words: Cell cycle arrest in human CCRF-CEM cells assessed as accumulation at subG1 phase at 0.1 uM treated for 3 hrs measured for 15 hrs after nocodazole treatment by flow cytometry in presence of mitotic inhibitor nocodazole. In kind it is functional.
Test [10] relates to CCRF-CEM. In words: Cell cycle arrest in human CCRF-CEM cells assessed as accumulation at subG1 phase at 10 uM treated for 3 hrs followed by drug washout and 15 hrs incubation in drug free medium by flow cytometry. In kind it is functional.
In test [11] the test system is CCRF-CEM. In words: Cell cycle arrest in human CCRF-CEM cells assessed as accumulation at G0 phase at 1 uM treated for 3 hrs followed by drug washout and 15 hrs incubation in drug free medium by flow cytometry. In kind it is functional.
Test [12] deals with CCRF-CEM. The test can be described thus: Cell cycle arrest in human CCRF-CEM cells assessed as accumulation at subG1 phase at 1 uM treated for 3 hrs measured for 15 hrs after nocodazole treatment by flow cytometry in presence of mitotic inhibitor nocodazole. In kind it is functional.
For test [13], the system named is CCRF-CEM. In words: Cell cycle arrest in human CCRF-CEM cells assessed as accumulation at G0 phase at 10 uM treated for 3 hrs followed by drug washout and 15 hrs incubation in drug free medium by flow cytometry. In kind it is functional.
Test [14] relates to CCRF-CEM. In words: Cell cycle arrest in human CCRF-CEM cells assessed as accumulation at G2/M phase at 0.1 uM treated for 3 hrs measured for 15 hrs after nocodazole treatment by flow cytometry in presence of mitotic inhibitor nocodazole. It is filed as functional.
In test [15] the test system is CCRF-CEM. The test can be described thus: Cell cycle arrest in human CCRF-CEM cells assessed as accumulation at S phase at 0.1 uM treated for 3 hrs measured for 15 hrs after nocodazole treatment by flow cytometry in presence of mitotic inhibitor nocodazole. In kind it is functional.
Test [16] relates to CCRF-CEM. In words: Cell cycle arrest in human CCRF-CEM cells assessed as accumulation at S phase at 10 uM treated for 3 hrs followed by drug washout and 15 hrs incubation in drug free medium by flow cytometry. In kind it is functional.
Test [17] has as its system CCRF-CEM. The test can be described thus: Cell cycle arrest in human CCRF-CEM cells assessed as accumulation at subG1 phase at 10 uM treated for 3 hrs measured for 15 hrs after nocodazole treatment by flow cytometry in presence of mitotic inhibitor nocodazole. It is filed as functional.
In test [18] the test system is CCRF-CEM. In words: Cell cycle arrest in human CCRF-CEM cells assessed as accumulation at S phase at 0.1 uM treated for 3 hrs followed by drug washout and 15 hrs incubation in drug free medium by flow cytometry. It is filed as functional.
Test [19] relates to CCRF-CEM. The test can be described thus: Cell cycle arrest in human CCRF-CEM cells assessed as accumulation at G2/M phase at 10 uM treated for 3 hrs measured for 15 hrs after nocodazole treatment by flow cytometry in presence of mitotic inhibitor nocodazole. It is filed as functional.
In test [20] the test system is CCRF-CEM. The test can be described thus: Cell cycle arrest in human CCRF-CEM cells assessed as accumulation at subG1 phase at 0.1 uM treated for 3 hrs followed by drug washout and 15 hrs incubation in drug free medium by flow cytometry. In kind it is functional.
In test [21] the test system is CCRF-CEM. In words: Cell cycle arrest in human CCRF-CEM cells assessed as accumulation at subG1 phase at 1 uM treated for 3 hrs followed by drug washout and 15 hrs incubation in drug free medium by flow cytometry. In kind it is functional.
The test system of test [22] is CCRF-CEM. In words: Cell cycle arrest in human CCRF-CEM cells assessed as accumulation at S phase at 10 uM treated for 3 hrs measured for 15 hrs after nocodazole treatment by flow cytometry in presence of mitotic inhibitor nocodazole. It is filed as functional.
The target of test [23] is T1, DNA topoisomerase 1 (Homo sapiens). The test can be described thus: Induction of human DNA topoisomerase 1-mediated DNA cleavage at 1 to 10 uM by polyacrylamide gel electrophoresis.
For test [24], the system named is CCRF-CEM. The test can be described thus: Cell cycle arrest in human CCRF-CEM cells assessed as accumulation at G2/M phase at 1 uM treated for 3 hrs followed by drug washout and 15 hrs incubation in drug free medium by flow cytometry. It is filed as functional.
Test [25] concerns CCRF-CEM. In words: Cell cycle arrest in human CCRF-CEM cells assessed as accumulation at G2/M phase at 10 uM treated for 3 hrs followed by drug washout and 15 hrs incubation in drug free medium by flow cytometry. In kind it is functional.
For test [26], the system named is CCRF-CEM. The test can be described thus: Cell cycle arrest in human CCRF-CEM cells assessed as accumulation at G0 phase at 0.1 uM treated for 3 hrs followed by drug washout and 15 hrs incubation in drug free medium by flow cytometry. In kind it is functional.
Test [27] deals with CCRF-CEM. The test can be described thus: Cell cycle arrest in human CCRF-CEM cells assessed as accumulation at G2/M phase at 0.1 uM treated for 3 hrs followed by drug washout and 15 hrs incubation in drug free medium by flow cytometry. In kind it is functional.

Regarding `O=C1c2[nH]c3ccccc3c2C(=O)c2cnc3ccccc3c21` [CALOTHRIXIN B], the Activity in test [1] is recorded as 4.8%; in test [2] it was 18.8%; in test [3], 7.7%; in test [5], 7.4%; in test [7], 18.2%; in test [8], 25.3%. Moreover, the Activity is 6.2% in test [9]; 11.2% in test [10]; 55.6% in test [11]; 4.6% in test [12]; 51.4% in test [13]; 61.5% in test [14]. Besides, the Activity in test [15] was 4.5%; in test [16] it was 17%; in [17], 6.4%; in test [18], 17.6%; in test [19], 18.2%; in test [20] it was 7.5%. Besides, the Activity in test [21] was 7.9%; in [22], 4.6%; in [23], 24%; in [24] it was 16.5%; in test [25] it was 18.6%; in test [26] it was 55.6%. For the same compound, the Activity in [27] stood at 17.3%. The compound further showed a half-inhibitory concentration (IC50) in test [4] of 1050 nM. Moreover, the result in [6] was Active.

For the compound `O=C1c2c[n+]([O-])c3ccccc3c2C(=O)c2[nH]c3ccccc3c21` [CALOTHRIXIN A], the Activity in test [1] is reported as 8.7%; in test [2] it was 29.5%; in [3], 13%; in [5], 13.3%; in [7], 15.3%; in [8] it was 8.3%. In addition, the Activity in test [9] is 7.7%; in test [10], 9.1%; in [11] it was 47.3%; in test [12], 4.2%; in test [13], 50.1%; in [14], 16.8%. Besides, the Activity is 4% in test [15]; 15.3% in test [16]; 2.1% in [17]; 17.3% in test [18]; 37% in [19]; 10.3% in test [20]. Also, the Activity turned out to be 16% in test [21]; 7.5% in [22]; 18% in test [23]; 19% in test [24]; 23.6% in test [25]; 51.4% in test [26]. Besides, the Activity in test [27] was 19.4%. The IC50 in test [4] was 200 nM. The result in test [6] was Active.

For `C[n+]1cc2c(c3ccccc31)C(=O)c1[nH]c3ccccc3c1C2=O.[I-]` [N-METHYLCALOTHRIXIN B], the Activity was found to be 4.9% in [1]; 20.1% in test [2]; 11.6% in test [3]; 6.9% in test [5]; 17% in [7]; 5.1% in test [8]. The Activity in test [9] is recorded as 3.7%; in test [10], 11.8%; in [11], 51%; in test [12], 5.4%; in test [13], 51.7%; in [14] it was 18.8%. The Activity in test [15] turned out to be 3.2%; in test [16], 15.1%; in test [17], 6.9%; in [18] it was 17.8%; in test [19], 21.7%; in test [20] it was 9.8%. In addition, the Activity is 10.6% in test [21]; 11.3% in test [22]; 11% in test [23]; 19.6% in test [24]; 19% in [25]; 50.3% in test [26]. Also, in test [27], the Activity was determined as 20.2%. In addition, the IC50 in test [4] was 5130 nM. The outcome in [6] was Active.

Turning to `CO[n+]1cc2c(c3ccccc31)C(=O)c1[nH]c3ccccc3c1C2=O`, the result in test [6] was Active. Further, the Activity in test [23] is 11%.

`CC[C@@]1(O)C(=O)OCc2c1cc1n(c2=O)Cc2cc3ccccc3nc2-1` [CAMPTOTHECIN]: the Activity is on record as 10.3% in test [1]; 21.7% in test [2]; 23.6% in test [5]; 15.5% in test [7]; 34.6% in [11]; 17.5% in test [12]. Moreover, the Activity in test [21] stood at 18%; in [24], 28.4%. This compound also yielded an IC50 in [4] of 40 nM.
